In brackets after ≈: the same amount, converted by molar mass.
How the values were obtained:
[1] = Cytotoxicity against human MT4 cells assessed as reduction in cell viability incubated for 5 days by MTT assay; type: cell-based; settings: human, MT4 cells; time 5 day
[2] = Resistance fold, ratio of EC50 for HIV1 harboring reverse transcriptase K103N/Y181C double mutant […] to EC50 for wild type HIV1 […]; type: functional
[3] = Resistance fold, ratio of EC50 for HIV1 harboring reverse transcriptase L100I mutant […] to EC50 for wild type HIV1 […]; type: functional
[4] = Resistance fold, ratio of EC50 for HIV1 harboring reverse transcriptase Y181C mutant […] to EC50 for wild type HIV1 […]; type: functional
[5] = tested on: Human immunodeficiency virus 1; assay: Antiviral activity against HIV1 harboring reverse transcriptase F227L/V106A mutant infected in human MT4 cells assessed as protection against virus-induced cytopathic effect incubated for 5 days by MTT assay; type: functional, organism-based; settings: Human immunodeficiency virus 1, MT4, 120 h
[6] = target: Human immunodeficiency virus type 1 reverse transcriptase (Human immunodeficiency virus 1, UniProt Q72547); assay: Inhibition of wild type HIV1 reverse transcriptase using oligo(dT)16 as primer measured after 40 mins by picogreen-dye based spectrofluorimetric analysis
[7] = Selectivity index, ratio of CC50 for cytotoxicity against human MT4 cells to EC50 of Anti-HIV activity against HIV-1 IIIB infected in human MT4; type: toxicity, cell-based; settings: read-out: Selectivity Index
[8] = Resistance fold, ratio of EC50 for HIV1 harboring reverse transcriptase K103N mutant […] to EC50 for wild type HIV1 […]; type: functional
[9] = tested on: Human immunodeficiency virus 1; assay: Antiviral activity against HIV1 harboring reverse transcriptase E138K mutant infected in human MT4 cells assessed as protection against virus-induced cytopathic effect incubated for 5 days by MTT assay; type: functional, organism-based; settings: Human immunodeficiency virus 1, MT4, 120 h
[10] = tested on: Human immunodeficiency virus 1; assay: Antiviral activity against HIV1 harboring reverse transcriptase Y188L mutant infected in human MT4 cells assessed as protection against virus-induced cytopathic effect incubated for 5 days by MTT assay; type: functional, organism-based; settings: Human immunodeficiency virus 1, MT4, 120 h
[11] = tested on: Human immunodeficiency virus 1; assay: Anti-HIV activity against HIV-1 IIIB infected in human MT4 cells assessed as reduction in virus-induced cytopathic effect incubated for 5 days by MTT assay; type: functional, organism-based; settings: Human immunodeficiency virus 1, IIIB, MT4, 120 h
[12] = tested on: Human immunodeficiency virus 2; assay: Anti-HIV activity against HIV2 ROD infected in human MT4 cells assessed as reduction in virus-induced cytopathic effect incubated for 5 days by MTT assay; type: functional, organism-based; settings: Human immunodeficiency virus 2, ROD, MT4, 120 h
[13] = tested on: Human immunodeficiency virus 1; assay: Antiviral activity against HIV1 harboring reverse transcriptase K103N/Y181C double mutant infected in human MT4 cells assessed as protection against virus-induced cytopathic effect incubated for 5 days by MTT assay; type: functional, organism-based; settings: Human immunodeficiency virus 1, MT4, 120 h
[14] = Resistance fold, ratio of EC50 for HIV1 harboring reverse transcriptase Y188L mutant […] to EC50 for wild type HIV1 […]; type: functional
[15] = tested on: Human immunodeficiency virus 1; assay: Antiviral activity against HIV1 harboring reverse transcriptase K103N mutant infected in human MT4 cells assessed as protection against virus-induced cytopathic effect incubated for 5 days by MTT assay; type: functional, organism-based; settings: Human immunodeficiency virus 1, MT4, 120 h
[16] = tested on: Human immunodeficiency virus 1; assay: Antiviral activity against HIV1 harboring reverse transcriptase Y181C mutant infected in human MT4 cells assessed as protection against virus-induced cytopathic effect incubated for 5 days by MTT assay; type: functional, organism-based; settings: Human immunodeficiency virus 1, MT4, 120 h
[17] = tested on: Human immunodeficiency virus 1; assay: Antiviral activity against HIV1 harboring reverse transcriptase L100I mutant infected in human MT4 cells assessed as protection against virus-induced cytopathic effect incubated for 5 days by MTT assay; type: functional, organism-based; settings: Human immunodeficiency virus 1, MT4, 120 h
[18] = Resistance fold, ratio of EC50 for HIV1 harboring reverse transcriptase E138K mutant […] to EC50 for wild type HIV1 […]; type: functional
[19] = Resistance fold, ratio of EC50 for HIV1 harboring reverse transcriptase F227L/V106A double mutant […] to EC50 for wild type HIV1 […]; type: functional
[20] = Water solubility of compound at pH 7 at 0.1 to 10 mg by HPLC-UV analysis; type: physicochemical; settings: dose 0.1-10 mg
[21] = Water solubility of compound at pH 2 at 0.1 to 10 mg by HPLC-UV analysis; type: physicochemical; settings: dose 0.1-10 mg
[22] = Water solubility of compound at pH 7.4 at 0.1 to 10 mg by HPLC-UV analysis; type: physicochemical; settings: dose 0.1-10 mg

SMILES	CC50 at 120 h [1] [µM]	EC50 [5] [µM]	selectivity ratio [7]	Ratio EC50 [8]	EC50 [9] [µM]	EC50 [10] [µM]	EC50 [11] [µM]	EC50 [13] [µM]	EC50 [15] [µM]	EC50 [16] [µM]	EC50 [17] [µM]	Ratio EC50 [18]	solubility [20] [µg/mL]	solubility [21] [µg/mL]	solubility [22] [µg/mL]	further results
CCCCCNc1cc(Oc2c(OC)cc3cc(C#N)ccc3c2OC)nc(Nc2ccc(C#N)cc2)n1	> 125	> 1000	> 5670	1	0.096	50.7	0.043	6.37	0.041	0.5	1.43	2				Ratio EC50 [2]: 147; Ratio EC50 [3]: 33; Ratio EC50 [4]: 12; IC50 [6]: 0.02 µM; EC50 [12]: > 1000 µM; Ratio EC50 [14]: 1171; Ratio EC50 [19]: >23095
Cc1cc(C#N)cc(C)c1Oc1nc(Nc2ccc(C#N)cc2)nc(N)c1Br [ETRAVIRINE]		0.027			0.021	0.03		0.052	0.0038	0.021	0.014		< 1	127 (≈ 292 µM)	1 (≈ 2.3 µM)	
CCCCNc1cc(Oc2c(OC)cc3cc(C#N)ccc3c2OC)nc(Nc2ccc(C#N)cc2)n1	> 125	> 1000	> 9600	1	0.064	3.12		1.52	0.031		0.63	2				Ratio EC50 [2]: 58; Ratio EC50 [3]: 24; IC50 [6]: 0.17 µM; EC50 [12]: > 1000 µM; Ratio EC50 [14]: 119; Ratio EC50 [19]: >38461
Cc1cn([C@H]2C[C@H](N=[N+]=[N-])[C@@H](CO)O2)c(=O)[nH]c1=O [ZIDOVUDINE]	> 2	0.031	> 240	2	0.051	0.029	0.029	0.033	0.032	0.031	0.01	2				Ratio EC50 [2]: 1; Ratio EC50 [4]: 1; EC50 [12]: 0.02 µM; Ratio EC50 [14]: 1; Ratio EC50 [19]: 1
Cc1ccnc2c1NC(=O)c1cccnc1N2C1CC1 [NEVIRAPINE]					0.33		22		8.49	7.15						
O=C1Nc2ccc(Cl)cc2[C@@](C#CC2CC2)(C(F)(F)F)O1 [EFAVIRENZ]		0.33			0.0053	0.0073	0.0043	0.22	0.14	0.0074	0.095					
COc1cc2cc(C#N)ccc2c(OC)c1Oc1cc(N)nc(Nc2ccc(C#N)cc2)n1.O=C(O)C(O)C(O)C(=O)O													< 1	< 1	29	
COc1cc2cc(C#N)ccc2c(OC)c1Oc1cc(N2CCC(O)C2)nc(Nc2ccc(C#N)cc2)n1.Cc1ccc(S(=O)(=O)O)cc1 (stereo not drawn)													6	8	13	
CCNc1cc(Oc2c(OC)cc3cc(C#N)ccc3c2OC)nc(Nc2ccc(C#N)cc2)n1.O=C(O)C(F)(F)F													< 1	< 1	< 1	
COc1cc2cc(C#N)ccc2c(OC)c1Oc1cc(N)nc(Nc2ccc(C#N)cc2)n1.O=C(O)CC(O)(CC(=O)O)C(=O)O													< 1	< 1	4	
COc1cc2cc(C#N)ccc2c(OC)c1Oc1cc(N)nc(Nc2ccc(C#N)cc2)n1.O=S(=O)(O)O													< 1	< 1	72	
COc1cc2cc(C#N)ccc2c(OC)c1Oc1cc(N)nc(Nc2ccc(C#N)cc2)n1.O=C(O)C(F)(F)F													1	< 1	3	
COc1cc2cc(C#N)ccc2c(OC)c1Oc1cc(NC(C)C)nc(Nc2ccc(C#N)cc2)n1	> 125		> 10400	19	0.047				0.47			2				IC50 [6]: 0.14 µM; EC50 [12]: > 1000 µM
COc1cc2cc(C#N)ccc2c(OC)c1Oc1cc(N2CCC(O)C2)nc(Nc2ccc(C#N)cc2)n1.O=C(O)/C=C\C(=O)O (stereo not drawn)													< 1	< 1	5	
CCNc1cc(Oc2c(OC)cc3cc(C#N)ccc3c2OC)nc(Nc2ccc(C#N)cc2)n1.CS(=O)(=O)O													< 1	< 1	1	
Br.COc1cc2cc(C#N)ccc2c(OC)c1Oc1cc(N2CCC(O)C2)nc(Nc2ccc(C#N)cc2)n1 (stereo not drawn)													< 1	< 1	< 1	
COc1cc2cc(C#N)ccc2c(OC)c1Oc1cc(N)nc(Nc2ccc(C#N)cc2)n1.I													< 1	< 1	1	
COc1cc2cc(C#N)ccc2c(OC)c1Oc1cc(NC2CCOCC2)nc(Nc2ccc(C#N)cc2)n1	> 125	> 1000	> 5970	1	0.21	2.62	0.04	4.34	0.09	0.9	1.51	3				Ratio EC50 [2]: 108; Ratio EC50 [4]: 23; IC50 [6]: 0.3 µM; EC50 [12]: > 1000 µM; Ratio EC50 [14]: 65; Ratio EC50 [19]: >25000
Nc1ccn([C@@H]2CS[C@H](CO)O2)c(=O)n1 [LAMIVUDINE]	> 20	3.07	> 15	1	8.49		5.76	6.01		4.57	2.13	1				Ratio EC50 [2]: 1; Ratio EC50 [3]: 0.4; Ratio EC50 [4]: 1; Ratio EC50 [14]: 0; Ratio EC50 [19]: 1
COc1cc2cc(C#N)ccc2c(OC)c1Oc1cc(N2CCC(O)C2)nc(Nc2ccc(C#N)cc2)n1.O=CO (stereo not drawn)													< 1	< 1	3	
COc1cc2cc(C#N)ccc2c(OC)c1Oc1cc(NCCCO)nc(Nc2ccc(C#N)cc2)n1	23.5	1.63	> 1630	1	0.055	0.44	0.014	0.23	0.012	0.11	0.31	4				Ratio EC50 [2]: 16; Ratio EC50 [4]: 8; IC50 [6]: 0.19 µM; EC50 [12]: 4.1 µM; Ratio EC50 [14]: 31; Ratio EC50 [19]: 113
CCNc1cc(Oc2c(OC)cc3cc(C#N)ccc3c2OC)nc(Nc2ccc(C#N)cc2)n1.O=C(O)C(O)C(O)C(=O)O													< 1	1	29	
CCNc1cc(Oc2c(OC)cc3cc(C#N)ccc3c2OC)nc(Nc2ccc(C#N)cc2)n1.O=CO													< 1	< 1	2	
COc1cc2cc(C#N)ccc2c(OC)c1Oc1cc(NCC2CCOCC2)nc(Nc2ccc(C#N)cc2)n1	> 125	2.48	> 10700	2	0.064	0.37	0.022	0.24	0.016	0.053	0.15	4				Ratio EC50 [2]: 11; Ratio EC50 [4]: 2; IC50 [6]: 0.2 µM; EC50 [12]: > 1000 µM; Ratio EC50 [14]: 17; Ratio EC50 [19]: 113
COc1cc2cc(C#N)ccc2c(OC)c1Oc1cc(N)nc(Nc2ccc(C#N)cc2)n1.O=C(O)/C=C\C(=O)O													7	13	28	

From ChEMBL document CHEMBL5036347, “Design of the naphthyl-diarylpyrimidines as potent non-nucleoside reverse transcriptase inhibitors (NNRTIs) via structure-based extension into the entrance channel” (Eur J Med Chem, 2021)
